Values of other authors in US20070275382A1, “Biomarkers for the Efficacy of Somatostatin Analogue Treatment” (priority 2003, published 2007).
Like-named read-outs stand apart in the source and are kept apart here.

Key:
hSST-2 = hSST-2 (Homo sapiens, UniProt P30874); settings: background statement, cited from earlier work
hSST-3 = hSST-3 (Homo sapiens, UniProt P32745); settings: background statement; cited from earlier work
hSST-3, sequence (P32745 whole entry): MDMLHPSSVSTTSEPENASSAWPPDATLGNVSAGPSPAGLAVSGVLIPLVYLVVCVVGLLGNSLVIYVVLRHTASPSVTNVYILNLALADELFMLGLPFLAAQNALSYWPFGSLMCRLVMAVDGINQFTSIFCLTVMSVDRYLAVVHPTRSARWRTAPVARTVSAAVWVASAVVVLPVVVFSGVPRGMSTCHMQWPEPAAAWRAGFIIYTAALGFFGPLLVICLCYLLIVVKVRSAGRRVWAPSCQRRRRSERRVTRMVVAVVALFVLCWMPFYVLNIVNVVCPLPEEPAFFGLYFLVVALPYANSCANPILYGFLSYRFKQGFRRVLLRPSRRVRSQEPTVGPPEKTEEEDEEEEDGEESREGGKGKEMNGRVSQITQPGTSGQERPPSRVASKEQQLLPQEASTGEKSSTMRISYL

hSST-2, sequence (P30874 whole entry): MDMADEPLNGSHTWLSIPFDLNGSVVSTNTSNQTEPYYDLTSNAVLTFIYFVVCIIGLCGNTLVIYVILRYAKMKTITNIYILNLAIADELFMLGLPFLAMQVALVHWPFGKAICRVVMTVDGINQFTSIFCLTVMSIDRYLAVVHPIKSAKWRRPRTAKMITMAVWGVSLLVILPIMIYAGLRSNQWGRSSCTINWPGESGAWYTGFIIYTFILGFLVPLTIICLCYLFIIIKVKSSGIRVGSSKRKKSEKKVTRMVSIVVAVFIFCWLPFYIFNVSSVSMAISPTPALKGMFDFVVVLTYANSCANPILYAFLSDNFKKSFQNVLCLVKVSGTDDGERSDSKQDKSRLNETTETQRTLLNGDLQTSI

| Compound | affinity/binding to somatostatin receptor subtype 2 (SSTR2) (hSST-2) | affinity/binding to somatostatin receptor subtype 2 (SSTR2) (hSST-2; listed as Sandostatin®) | binding to SSTR3 (hSST-3) |
| --- | --- | --- | --- |
| CC(C)[C@@H]1NC(=O)[C@H](CCCCN)NC(=O)[C@@H](Cc2c[nH]c3ccccc23)NC(=O)[C@H](Cc2ccc(O)cc2)NC(=O)[C@@H](NC(=O)[C@H](N)Cc2ccc3ccccc3c2)CSSC[C@@H](C(=O)N[C@H](C(N)=O)[C@@H](C)O)NC1=O [lanreotide] | selective high affinity | – | – |
| C[C@@H](O)[C@@H]1NC(=O)[C@H](CCCCN)NC(=O)[C@@H](Cc2c[nH]c3ccccc23)NC(=O)[C@H](Cc2ccccc2)NC(=O)[C@@H](NC(=O)[C@H](N)Cc2ccccc2)CSSC[C@@H](C(=O)N[C@H](CO)[C@@H](C)O)NC1=O [octreotide] | selective high affinity | binds mainly to SSTR2 | to some extent |
